Reference: US20130079287A1, “CAFFEOYLALPHANEOENDORPHIN PEPTIDE DERIVATIVE AND USE THEREOF AS ANTI-ITCHING AND ANTI-ATOPIC AGENTS” (priority 2011, published 2013)
Values joined by “and” are separate entries in the source; they are usually repeats but may differ in a detail not shown here. Equal values may be shown once. Marks after values point to notes of the source that are not given here. One block for each molecule: values may come before it. Where a SMILES comes first, the peptide text is derived from it. Where no end group is shown, it is not given here. The star is where a group is joined. Caffeoyl = O=C(/C=C/c1ccc(O)c(O)c1)*

Experiments:
NZW Rabbit skins = assay: Skin irritation safety test (topical toxicity); format: in vivo, New Zealand White-Rabbit; set-up: key to Erythema & Eschar score: 0: Absolutely no erythema; 1: Very light erythema (barely identifiable level with the naked eye); 2: Obvious erythema; 3: A little serious erythema; 4: Serious erythema (carrot color) and crust formation; key to clinical signs: —: Normal; settings: for clinical signs: female rabbit; for Edema score, Average / Edema score, Sum / Erythema & Eschar score, Average / Erythema & Eschar score, Sum: 6 animals
Method: In order to confirm the safety of caffeoyl peptide derivative according to the present invention to a human body skin when applying besides a skin that is an expected first human body application method, a topical toxicity skin irritation safety that is pre-clinical test method of pharmaceuticals was verified. The safety verification was performed by asking to Korea Research Institute of Chemical Technology that is an approved GLP Certificate Authority; the maximum application concentration range to skin irritation during topical toxicity was set at 10 mg/ml concentration, and then it was tested that irritant to a skin at the above concentration was not existed. For the above test, at least 6 of young and healthy white rabbits (New Zealand White-Rabbit, 2.0˜3.0 kg) were used. After selecting only healthy rabbits through observing a general symptom every day for 5 days during an accommodating period from an obtaining day, hairs of the abdominal regions of the selected rabbits was shaved away and then 6 rabbits with normal skins were used for test. […] An keeping environment was simply as follows: the test was performed in a rabbit keeping room in the institute by setting the temperature of 22° C., the relative humidity of 50%, a number of ventilation of 10˜15 number/hr, lighting of 12 h lights-on/12 h lights-off (08:00˜20:00), an intensity of illumination of 150˜300 Lux. For monitoring of keeping environment, whole humidity in an animal room was measured by an auto-measurer and environment conditions, such as, an intensity of illumination were regularly measured during a test period. As a result of environment measurement in an animal room, there was no change to affect to the test. The animals were kept individually in a stainless keeping box (380×480×300 mm, JungDo Industry) during accommodation, inspection, and observation periods. Feeds that was feeds for Rabbits, experiment animals, supplied from Cargillagripurina Cor. (Chonbuk, Gunsan-si Soyong dong 56-4) was freely taken by the animals, and water that was a filtered water through UV irradiation was freely taken by using a water bottle. In order to confirm the contaminant in the feeds and water, the contaminant of feeds was confirmed by receiving the feed report card according to regular test of manufacturer from a feeds supplier, and the contaminant of water was confirmed through the regular test according to applicable standard working water procedure (SOPs) of the institute.
The caffeoylalphaneoendorphin peptide derivative that was a test material prepared from Example 1 was dissolved in a concentration of 10 mg/ml (10,000 ppm), and then 0.5 ml per each animal was used by using the following method. […] The abraded skins were made to have a scratch without blood by using a needle end of syringe so that the horny layer of the skin was damaged, but the corium of the skin was not damaged. After the test materials were applied to one site of abraded skins and one site of intact skins, the sites were occlusive-patched with non-irritative tape and Coban for 24 hours. Control regions were applied with sterilized gauze wetted with sterilized distilled water by using the same method as the above (see FIG. 4).
In order to observe as to whether skin irritation was occurred, a change of general symptoms and as to whether animals were killed were observed during 72 hours after completing the application of test materials as the observation of general symptoms. In addition, the body weights per individual were measured immediately before applying the test materials and at 72 hours after applying the test materials. […] The evaluation of skin response and decision of irritant were performed based on the evaluation table of skin response as disclosed in the following Table 1. The decision of irritant content to the result was performed according to a calculation method of P.I.I. (Primary Irritation Index) by Draize, which is well used, generally (see Table 2).

[1] = tested on: peptidase derived from the cell disruption solution of fibroblast; assay: Stability to peptidase, cell disruption solution of fibroblast; settings: 10,000 ppm, 37° C., 6 hours
Method: (§1) After culturing at 37° C. for 6 hours, the residual contents were analyzed, and the existing contents were compared and evaluated on a percentage (%) to the initial existing contents.

[2] = tested on: peptidase derived from the cell disruption solution of keratinocyte; assay: Stability to peptidase, cell disruption solution of keratinocyte; settings: 10,000 ppm, 37° C., 6 hours
Method: as §1

[3] = Physical stability test under alternating temperature; format: physicochemical; settings: alternating temperature 4/20/40° C. at 8 h interval, up to 60 days, naked eye
Text: The physical stability under the condition of severe alternating temperature is an essential factor in the terms of the product property to be exposed to various external atmospheres in the case of cosmetics. The caffeoylalphaneoendorphin peptide derivative prepared from Example 1 has an increased stability to oxidation rather than that of caffeic acid in an aqueous solution. In order to confirm the increased physical stability, it was stored under the condition of alternating temperature for certain period time, and then its degradation degree was measured.
Firstly, 10,000 ppm concentration of caffeoylalphaneoendorphin peptide derivative aqueous solution was placed under the conditions of alternating temperatures, that is, low temperature (4° C.), room temperature (20° C.), and high temperature (40° C.) that were repeated at an interval of 8 hours, and then the physical stability was measured by the naked eye and HPLC Analysis for 30 days, 60 days, and 90 days.

[4] = test sites, abraded skin, 24 hour
[5] = test sites, abraded skin, 72 hour
[6] = test sites, intact skin, 24 hour
[7] = test sites, intact skin, 72 hour

Molecule: CC(C)C[C@H](NC(=O)[C@H](Cc1ccccc1)NC(=O)CNC(=O)CNC(=O)[C@H](Cc1ccc(O)cc1)NC(=O)/C=C/c1ccc(O)c(O)c1)C(=O)N[C@@H](CCCNC(=N)N)C(=O)N[C@@H](CCCCN)C(=O)N[C@@H](Cc1ccc(O)cc1)C(=O)N1CCC[C@H]1C(=O)N[C@@H](CCCCN)C(=O)O [Caffeoyl (R1, R2, and R5 are hydrogen, and R3 and R4 are hydroxy)-alphaneoendorphin Peptide Derivative] (Caffeoyl-YGGFLRKYPK-OH)
Body weights (NZW Rabbit skins; 0 hours (immediately before applying), per animal): 2237.2 g and 2511.9 g and 2684.9 g and 2408.4 g and 2478.1 g and 2347.3 g | changes of body weights of all animals (NZW Rabbit skins; 0 to 72 hours): normally increased | Body weight gains (NZW Rabbit skins; 0 to 72 hours, per animal): 76.2 g and 119.5 g and 103.1 g and 88.3 g and 133.6 g and 107.1 g | toxicity in skin irritation test of topical toxicity (NZW Rabbit skins; 10 mg/ml): no toxicity | Irritant Evaluation by P.I.I. (NZW Rabbit skins; 10 mg/ml applied over NZW Rabbit skins): none irritant | clinical signs (NZW Rabbit skins; 10 mg/ml, 0.5 ml per animal, 0 hours after application, per animal): — | clinical signs (NZW Rabbit skins; 10 mg/ml, 0.5 ml per animal, 24 hours after application, per animal): — | clinical signs (NZW Rabbit skins; 10 mg/ml, 0.5 ml per animal, 48 hours after application, per animal): — | clinical signs (NZW Rabbit skins; 10 mg/ml, 0.5 ml per animal, 72 hours after application, per animal): — | Mortality (Number of dead animals/Number of total animals) (NZW Rabbit skins; 10 mg/ml, 0.5 ml per animal, female rabbits, 72 hours): 0/6^a | Body weights (NZW Rabbit skins; 72 hours after application, per animal): 2313.4 g and 2631.4 g and 2788.0 g and 2496.7 g and 2611.7 g and 2454.4 g | death or unusual symptoms related to the application (NZW Rabbit skins; during the test period): no death or unusual symptoms | P.I.I (Primary Irritation Index) (NZW Rabbit skins; test sites, 10 mg/ml, (Sum or mean at 24 and 72 hrs)/4): 0.0 | Edema score, Average (NZW Rabbit skins; [4]): 0 | Edema score, Sum (NZW Rabbit skins; [4]): 0 | Erythema & Eschar score, Average (NZW Rabbit skins; [4]): 0 | Erythema & Eschar score, Sum (NZW Rabbit skins; [4]): 0 | Erythema & Eschar score (NZW Rabbit skins; test sites, abraded skin, 24 hour, per animal): 0 | Edema score, Average (NZW Rabbit skins; [5]): 0 | Edema score, Sum (NZW Rabbit skins; [5]): 0 | Erythema & Eschar score, Average (NZW Rabbit skins; [5]): 0 | Erythema & Eschar score, Sum (NZW Rabbit skins; [5]): 0 | Erythema & Eschar score (NZW Rabbit skins; test sites, abraded skin, 72 hour, per animal): 0 | Sum of Averages (NZW Rabbit skins; test sites, erythema & eschar and edema, 24 and 72 hour): 0.0 | Edema score, Average (NZW Rabbit skins; [6]): 0 | Edema score, Sum (NZW Rabbit skins; [6]): 0 | Erythema & Eschar score, Average (NZW Rabbit skins; [6]): 0 | Erythema & Eschar score, Sum (NZW Rabbit skins; [6]): 0 | Erythema & Eschar score (NZW Rabbit skins; test sites, intact skin, 24 hour, per animal): 0 | Edema score, Average (NZW Rabbit skins; [7]): 0 | Edema score, Sum (NZW Rabbit skins; [7]): 0 | Erythema & Eschar score, Average (NZW Rabbit skins; [7]): 0 | Erythema & Eschar score, Sum (NZW Rabbit skins; [7]): 0 | Erythema & Eschar score (NZW Rabbit skins; test sites, intact skin, 72 hour, per animal): 0 | degradation by peptidase [1]: almost not degraded | increase of existing contents versus alphaneoendorphin ([1]; HPLC): 5.9±2.1 times | degradation by peptidase [2]: almost not degraded | increase of existing contents versus alphaneoendorphin ([2]; HPLC): 6.1±1.3 times

acidification of aqueous solution (change of transparency) [3]: serious acidification
Molecule: O=C(O)/C=C/c1ccc(O)c(O)c1 [caffeic acid]

Molecule: YGGFLRKYPK [alphaneoendorphin]
degradation by peptidase [1]: considerably degraded | degradation by peptidase [2]: considerably degraded
